The values that follow come from patent US5449773A, “Platinum complexes of sucrose derivatives” (priority 1995, dated 1995).

Data set [1] deals with human KB cell cultures. Description: Cytotoxicity test on human KB cell cultures (Examples 8 and 9). The settings on record: cells continuously cultured with the complex.
Protocol: (§1) The cytotoxicity of diaminosucrose platinum complexes was evaluated on human KB cell cultures as follows:
(§2) Graded doses of the respective diaminosucrose platinum (II) complexes tested contained in 0.1 ml of MEM medium were added to tube cultures of KB cells (contained in 1 ml of MEM medium with 4% fetal calf serum) immediately after seeding of ca. 2×10,000 cells/mi.
(§3) The incubated cultures were seeded every 3 days by 3 times dilution with the particular complex tested to maintain exponential cell growth.
(§4) After incubation the relative cytotoxic activity of the various platinum complexes was evaluated as follows:
(§5) Treated and untreated (control) tumor cell lines were viewed under the microscope and the number of dead cells quantified by visual means. Zero activity means that 100% of the treated cells survived, i.e., like the control.
Data set [2] relates to Lewis lung carcinoma. Description: Effect on intraperitoneally implanted Lewis lung carcinoma in mice (Examples 10 and 12).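 Note: C57BL/6 mice bearing Lewis lung tumor cells implanted intraperitoneally, treated intraperitoneally in distilled water starting day 1 after implantation.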
Protocol: Young adult syngeneic C57BL/6 mice (ca. 17-19 grams) were implanted intraperitoneally with 3-5×10^5 Lewis Lung tumor cells. The respective diaminosucrose platinum (II) compounds were then administered intraperitoneally in distilled water commencing the first day after tumor implantation.
Lewis Lung tumor cells (3-5×10^5) were inoculated intraperitoneally (i.p.) into young adult syngeneic C57BL/6 mice (ca. 17-19g body weight). Administration of the platinum complexes (contained in 0.1 ml of distilled water) was started on day 1 after tumor implantation.
In another data set the test system is E. coli. To be noted: cited from earlier work.
The conditions of data set [3]: cells; cited from earlier work.
Data set [4] relates to human KB cell cultures.
Protocol: as §1, §2, §3, §4, §5
A short description of data set [5]: Solubility of sucrose platinum complexes. The data set is classed as physicochemical. The settings on record: water, limits the dose.
The subject of data set [6] is human KB cell cultures. Description: Cytotoxicity test of sucrose mono-, bis- and tris(platinum) complexes on human KB cell cultures (Example 11). The data set is classed as cell-based. To be noted: 10 μg/ml. How it is done:
Cultures were seeded after 3 days by 3 times dilution with the platinum complex in order to maintain exponential growth.
The platinum complexes tested were cis-platin, a mono(platinum) complex of 6,6'-diamino-6,6'-dideoxy-1',2,3,3',4,4'-hexa-O-methylsucrose, a bis(platinum) complex of 6,6'-diamino-6,6'-dideoxy-1',2-anhydrosucrose and a tris(platinum) complex of 1',6,6' -triamino-1',6,6'-trideoxy-2,3,3',4,4'-penta-O-methylsucrose.

The test system of data set [7] is P388 leukemia. Description: Effect of dose of sucrose bis(platinum) complex on P388 leukemia in syngeneic DBA/2 mice (Example 14). The format is in vivo. To be noted: for Changes of body weight day 1 to 2 / Increase in life span / Mean survival time: day 1. Here is the method:
The effect of dose of sucrose bis(platinum complex on P388 leukemia cells in syngeneic DBA/2 mice was evaluated. A 0.1 ml of 10× dilution of P388 ascites (ca. 10^6 cells) was injected intraperitoneally (i.p.) into syngeneic DBA/2 mice (ca. 20 g body weight). The i.p. administration was effected on day 1 only. The bis(platinum) complex (1.0 mg/0.1 ml distilled water) had been stored for 77 days at 4° C. before administration.

The test system of data set [8] is Lewis lung carcinoma. Description: Effect of dose of sucrose bis(platinum) complex on intraperitoneally implanted Lewis lung carcinoma in mice (Example 13). The format is in vivo. How it is done: The effect of dosage of the sucrose bis(platinum) complex on intraperitoneally implanted Lewis lung carcinoma cells was evaluated in mice. […] Administration of the complex (in 0.1 ml of distilled water) was effected on day 2 and day 4 after implantation.

For data set [9], the system named is P388 leukemia. The experiment in a line: Effect of sucrose bis(platinum) complex on P388 leukemia in syngeneic DBA/2 mice (Example 15). The format is in vivo. An excerpt: The effect of the sucrose bis(platinum) complex on P388 leukemia cells in syngeneic DBA/2 mice was further evaluated.
Setting [10] is: 0.5 mg/mouse i.p., day 1, 2, 3, 6.
The mark [11] stands for this setting: 2 mg×2 i.p., listed as sucrose bis(platinum) complex.

Entries after “also recorded” stand apart in the source; their conditions may differ. Like-named read-outs stand apart in the source and are kept apart here.

With `COCC1(OC2OC(CN)C(OC)C(OC)C2OC)OC(CN)C(OC)C1OC.[Cl][Pt][Cl]` (stereo not drawn) [Sample No. 2, N-N'-(cis-dichloroplatinato)-6,6'-diamino-6,6'-dideoxy-1',2,3,3',4,4'-hexa-O-methylsucrose], the minimum cytotoxic concentration in the data set on human KB cell cultures [1] stood at 125 µg/mL. Also, in the data set on Lewis lung carcinoma [2] (2 mg/mouse i.p., day 1, 3), the “Changes of body weight day 1 to 7” value is “+2.0 g”, the “Increase in life span” value is recorded as -1%, the Mean survival days was 13.8 days and the “No. of mice survival/total” value is recorded as 0/5. For the same molecule, in the data set with Lewis lung carcinoma [2] (2 mg×2 i.p.), the “antitumor activity (in words)” value was “no antitumor activity”. Besides, the “toxicity to the host / body weight (in words)” value with Lewis lung carcinoma [2] (2 mg×2 i.p., listed as sucrose mono(platinum) complex) is given as “no antitumor activity nor toxicity to the host”.
For `N.N.[Cl-].[Cl-].[OH-].[OH-].[Pt+4]` [cis, cis-diamine-dichloro-trans-dihydroxoplatinum (IV)], in the data set with E. coli, the “prevention of DNA replication (in words)” value is reported as “have the ability to prevent DNA replication in E. coli”.
Take `N.N.[Cl][Pt][Cl]` [Sample No. 1, Cis-dichlorodiamine platinum]: the “saturability and inhibition of accumulation (in words)” value in data set [3] was “accumulation is not saturable up to 3 mM cisplatin and cannot be inhibited with structural analogs”. For the same molecule, the “prevention of DNA replication (in words)” value in the data set on E. coli (listed as cisplatin) is listed as “have the ability to prevent DNA replication in E. coli”.
With `NC1C(O)OC(CO)C(O)C1O.[NH2][Pt]([Cl])[Cl]` (centres unmarked) [Sample No. 11, N-(amminedichloroplatinato)-2-aminoglucose], the “cytotoxicity (in words)” value with human KB cell cultures [4] was “appears not to exhibit toxicity immediately but rather exhibits a delayed toxic response which occurs gradually during the incubation period”.
In the case of `N.N.[Cl][Pt][Cl]` [transplatin, trans-diamine-dichloroplatinum (II)], in the data set on E. coli, the “prevention of DNA replication (in words)” value is recorded as “does not comprise this activity”.
For `NCCN.O=C1[O][Pt][O]C(=O)C12CC2` [Sample No. 9, cis-(ethylenediamino-N,N')-1,1-cyclopropanedicarboxylatoplatinum], the “cytotoxicity (in words)” value in the data set with human KB cell cultures [4] is “more toxic than Sample No. 10 or Sample No. 6”.
As for `COC1C(CN)OC(OC2(CN)OC(CN)C(OC)C2OC)C(OC)C1OC.[NH2][Pt]([Cl])[Cl].[NH2][Pt]([Cl])[Cl].[NH2][Pt]([Cl])[Cl]` (stereo not drawn) [Sample No. 7, N,N',N"-tris[cis-amminedichloroplatinato]-1'6,6'-triamino-1',6,6'-trideoxy-2,3,3',4,4'-penta-O-methylsucrose], the “aqueous solubility (in words)” value in [5] is “Larger dosages were not possible because of the solubility constraints”. In addition, the “aqueous solubility (in words)” value in [5] (listed as sucrose tris(platinum) complex) is reported as “limited solubility”. The minimum cytotoxic concentration in the data set with human KB cell cultures [1] turned out to be 10 µg/mL. In addition, in the data set on Lewis lung carcinoma [2] (setting [10]), the “Changes of body weight day 1 to 7” value was -0.8 g, the “Increase in life span” value is greater than 255%, the Mean survival days is recorded as greater than 39.8 days and the “No. of mice survival/total” value is on record as 3/5. In the data set with Lewis lung carcinoma [2] (0.5 mg×4 i.p.), the “antitumor activity (in words)” value was “remarkable antitumor activity” and the “reduction of body weight (in words)” value is recorded as “moderate reduction of body weight”. Besides, the “survival and tumor-free outcome (in words)” value in the data set on Lewis lung carcinoma [2] (0.5 mg×4 i.p., observation to day 50) was “Two mice died of tumor growth on day 22 and day 27. Three mice survived tumor-free until the end of the observation period (day 50)”. In addition, in the data set on Lewis lung carcinoma [2] (0.5 mg×4 i.p., listed as sucrose tris(platinum) complex), the “reduction of body weight (in words)” value is on record as “moderate .reduction in body weight”. Besides, in the data set with human KB cell cultures [6] (7.9 nM, 10 days incubation), the Cytotoxicity is 3+ (66% of the treated cells appear to be dead).
`N.N.NCC1OC2OC3(COC2C(O)C1O)OC(CN)C(O)C3O.[Cl][Pt][Cl].[Cl][Pt][Cl]` (stereo not drawn) [Sample No. 6, N,N'-bis[cis-amminedichloroplatinato]-6,6'-diamino-6,6'-dideoxy-1',2-anhydrosucrose]: the “antitumor activity (in words)” value with P388 leukemia [7] (0.1 mg i.p.) is recorded as “no antitumor activity”. Also, in the data set on P388 leukemia [7] (0.1 mg/mouse i.p.), the “Changes of body weight day 1 to 2” value is given as -0.2 g, the “Increase in life span” value is 16% and the Mean survival time is reported as greater than 8.8. Moreover, the “antitumor activity (in words)” value in the data set on P388 leukemia [7] (2 mg / high doses, i.p., listed as sucrose bis(platinum) complex) is given as “significant antitumor activity; also recorded: definite antitumor activity”. In the data set with P388 leukemia [7] (2 mg/mouse i.p.), the “Changes of body weight day 1 to 2” value is reported as -1.5 g, the “Increase in life span” value is greater than 111% and the Mean survival time was greater than 16.0. For the same molecule, in the data set with P388 leukemia [7] (high doses), the “activity against P388 leukemia compared with cisplatin (in words)” value was “comparable to that of cisplatin against P388 leukemia” and the “systemic toxicity (in words)” value is given as “still not toxic systemically”. In addition, in the data set on Lewis lung carcinoma [8] (0.1 mg/mouse i.p., day 2, 4), the “Changes of body weight day 1 to 7” value was “+2.0 g”, the “Increase in life span” value was greater than 135% and the Mean survival time is listed as greater than 48.8. In the data set with Lewis lung carcinoma [8] (0.1 mg×2 i.p.), the “antitumor activity (in words)” value is listed as “significant antitumor activity”. Moreover, the “tumor-free survival (in words)” value with Lewis lung carcinoma [8] (0.1 mg×2 i.p., observation to day 50) was “Three mice survived healthy and tumor-free up to the end of the observation period (day 50)”. Also, in the data set on P388 leukemia [9] (1.0 mg/mouse i.p., day 1), the “Changes of body weight day 1 to 2” value is -1.0 g, the “Increase in life span” value is listed as greater than 89% and the Mean survival time is given as greater than 16.6. In the data set on P388 leukemia [9] (dose of 1.0), the “prolongation of survival time over the controls” value was determined as 84%. The “antitumor activity / cure (in words)” value in the data set on P388 leukemia [9] (dose of 1.0, listed as sucrose bis(platinum) complex) was “significant antitumor activity; also recorded: one mouse appearing cured”. The minimum cytotoxic concentration with human KB cell cultures [1] was found to be 10 µg/mL. Besides, in the data set on Lewis lung carcinoma [2] (2 mg/mouse i.p., day 1, 3), the “Changes of body weight day 1 to 7” value is listed as -3.0 g, the “Increase in life span” value was greater than 210%, the Mean survival days is recorded as greater than 43.4 days and the “No. of mice survival/total” value is on record as 3/5. Besides, in the data set on Lewis lung carcinoma [2] (2 mg×2 i.p.), the “antitumor activity (in words)” value is listed as “substantial antitumor activity”; the “recovery, survival and tumor-free outcome (in words)” value is “All of the mice treated, however, recovered the loss of body weight and were tumor-free by day 30”; the “toxicity to the host / body weight (in words)” value is on record as “significant reduction of body weight”. For the same molecule, in the data set with Lewis lung carcinoma [2] (setting [11]), the “antitumor activity (in words)” value is on record as “remarkable antitumor activity”; the “recovery, survival and tumor-free outcome (in words)” value was “All the mice treated gradually recovered from the toxicity; however, 2 mice died of tumor growth on days 32 and 35. Three mice survived healthy and tumor-free up to the end of the observation period (day 50)”. In the data set on Lewis lung carcinoma [2] (i.p., per mouse, judged from body weight loss), the maximum tolerable dose is given as roughly 2 mg×2. Moreover, the Cytotoxicity in the data set with human KB cell cultures [6] (11.2 nM, 14 days incubation) was 3+ (66% of the treated cells appear to be dead).
Regarding `COCC1(OC2OC(CN)C(OC)C(OC)C2OC)OC(CN)C(OC)C1OC.O=C1[O][Pt][O]C(=O)C12CC2` (stereo not drawn) [Sample No. 5, N,N'-(cis-[1,1-cyclopropanedicarboxylato-platinato)]-6,6'-diamino-6,6'-dideoxy-1',2,3,3',4,4'-hexa-O-methylsucrose], in the data set with human KB cell cultures [4], the “cytotoxicity (in words)” value was “not very toxic”.
Take `N.N.[Cl][Pt]([Cl])([Cl])[Cl]` [cis-cis-trans-diaminetetrachloroplatinum (IV)]: the “prevention of DNA replication (in words)” value in the data set with E. coli is “have the ability to prevent DNA replication in E. coli”.
